Consider seven compounds from patent US20090324515A1, “ANTIMICROBIAL FLAVOURING COMPOSITION” (priority 2006, published 2009).

The subject of test [1] is Porphyromonas gingivalis DSM 20709. Briefly: Determination of minimum inhibitory concentration (microdilution assay). The settings on record: for MIC: Porphyromonas gingivalis, DSM20709, 72 h, read-out: MIC Porphyromonas gingivalis.
Test [2] has as its system Streptococcus mutans DSM 6178. The test is described as above. The settings on record: for MIC: Streptococcus mutans, DSM6178, 24 h, read-out: MIC Streptococcus mutans.
Test [3] relates to Fusobacterium nucleatum DSM 20482. The description is as above. The conditions noted are these: for MIC: Fusobacterium nucleatum, DSM20482, 72 h, read-out: MIC Fusobacterium nucleatum.
Test [4] has as its system Prevotella melaninogenica. The test is described as above. The settings on record: 72 h, read-out: MIC Prevotella melaninogenica.
The subject of test [5] is Mycobacterium tuberculosis subsp. tuberculosis. The settings on record: Amicbase; cited from earlier work.
Test [6] deals with Eschericia coli. The settings on record: Amicbase; cited from earlier work.
Test [7] relates to Streptococcus sp. The conditions noted are these: Amicbase; cited from earlier work.
In test [8] the test system is Staphylococcus aureus. The settings on record: Amicbase; cited from earlier work.
The subject of test [9] is Pseudomonas aeruginosa. The conditions noted are these: Amicbase; cited from earlier work.
Test [10] has as its system Proteus mirabilis. The settings on record: Amicbase; cited from earlier work.
Where [11] appears, read: 72 h, 37° C., anaerobic, without CO2, average of 3 MIC values.

In brackets after ≈: the same amount, converted by molar mass.

For `CC1=CCC(CCC(C)CO)C1(C)C` (centres unmarked) [Brahmanol, 2-methyl-4-(2,2,3-trimethyl-3-cyclopenten-1-yl)-1-butanol], the MIC in test [1] was at most 150 µg/mL; in [2], 250 µg/mL (≈ 1.27 mM); in test [3], 250 µg/mL (≈ 1.27 mM).
For `O=C1CCCCCCCCCCCCCC1` [Cyclopenta-decanone, cyclopentadecanone], the figures for the MIC in test [1], in [2] and in test [3] were at most 150 µg/mL, 1000 µg/mL (≈ 4.46 mM) and 1000 µg/mL (≈ 4.46 mM), respectively.
As for `CCCCC(C)C(=O)O` (centres unmarked) [2-Methylhexanoic acid, 2-methylhexanoic acid], the MIC is 1300 µg/mL (≈ 9.99 mM) in test [1], at most 150 µg/mL in test [2], 500 µg/mL (≈ 3.84 mM) in [3] and 1500 µg/mL (≈ 11.5 mM) in test [4].
Turning to `O=C/C=C/c1ccccc1` [Cinnamic aldehyde, cinnamic aldehyde], the MIC in [1] is at most 150 µg/mL; in [2] it was 250 µg/mL (≈ 1.89 mM); in test [3] it was 500 µg/mL (≈ 3.78 mM).
As for `CC(=O)C1=C(C)[C@@H]2C[C@@]3(C1)[C@H](C)CC[C@H]3C2(C)C` [Acetyl cedrene, acetyl cedrene], the “MIC Porphyromonas gingivalis” value in test [1] (setting [11]) is listed as 150 or less ppm. For the same compound, in test [2] (24 h, 37° C., anaerobic, with CO2, average of 3 MIC values), the “MIC Streptococcus mutans” value amounted to 250 ppm. In [3] (setting [11]), the “MIC Fusobacterium nucleatum” value was 500 ppm.
On to `Cc1ccc(O)cc1C` [3,4-dimethylphenol], for which the MIC in test [5] is 20 ppm; in test [6], 4000 ppm; in test [1], at most 150 µg/mL; in test [7], 2000 ppm; in [2], at most 150 µg/mL; in test [3], 500 µg/mL (≈ 4.09 mM). The MIC in [8] is 2000 ppm; in test [9] it was 4000 ppm; in test [10] it was 4000 ppm; in test [4], 590 µg/mL (≈ 4.83 mM).
In the case of `COC(=O)c1c(C)cc(O)c(C)c1O` [Methylatrarate, methyl-2,4-dihydroxy-3,6-dimethyl-benzoate], the MIC in test [1] is at most 150 µg/mL; in test [2] it was 1000 µg/mL (≈ 5.1 mM); in test [3] it was at most 150 µg/mL.
